Reference: the NIST ThermoML archive (doi:10.1016/j.jct.2017.06.020)

What was measured:
[1] = refractive index (Na D-line) (dimensionless); conditions: 298.15 K; 101.3 kPa; Liquid; Standard Abbe refractometry
[2] = relative permittivity at various frequencies (dimensionless); conditions: 298.15 K; 101.3 kPa; Liquid; Frequency=0.01 MHz; Coaxial cylinder capacitor
[3] = 298.15 K; 101.3 kPa; Liquid; Vibrating tube method
[4] = refractive index (Na D-line) (dimensionless); xn = mol fraction of the nth substance listed; conditions: 298.15 K, 101.3 kPa, Liquid, Standard Abbe refractometry
[5] = relative permittivity at various frequencies (dimensionless); xn = mol fraction of the nth substance listed; conditions: 298.15 K, 101.3 kPa, Liquid, Frequency=0.01 MHz, Coaxial cylinder capacitor

CC(C)CCO [3-methylbutan-1-ol]
Conditions	mass density [kg/m3]	refractive index	relative permittivity
[1]	–	1.4048	–
[2]	–	–	14.96
[3]	807.16	–	–

CC(C)CCO [3-methylbutan-1-ol] + CC(=O)c1ccccc1
x2 = 0
Conditions	refractive index	relative permittivity
[4]	1.4048	–
[5]	–	14.96

CC(C)CCO [3-methylbutan-1-ol] + CC(C)=O
Conditions	refractive index, [4]	relative permittivity, [5]
x2 = 0	1.4048	14.96
x2 = 0.1	1.4016	14.72
x2 = 0.2	1.3981	14.62
x2 = 0.3	1.3936	14.71
x2 = 0.4	1.3893	14.96
x2 = 0.5	1.3854	15.44
x2 = 0.6	1.3799	16.08
x2 = 0.7	1.3751	16.95
x2 = 0.8	1.3701	17.99
x2 = 0.9	1.3634	19.21

CC(C)CCO [3-methylbutan-1-ol] + CCC(C)=O
Conditions	refractive index, [4]	relative permittivity, [5]
x2 = 0	1.4048	14.96
x2 = 0.099	1.4024	14.59
x2 = 0.2	1.4001	14.38
x2 = 0.3	1.3972	14.33
x2 = 0.4	1.3948	14.44
x2 = 0.499	1.392	14.69
x2 = 0.599	1.3891	15.12
x2 = 0.7	1.3863	15.7
x2 = 0.8	1.3829	16.43
x2 = 0.9	1.38	17.33

CC(C)CCO [3-methylbutan-1-ol] + C[S+](C)[O-]
Conditions	refractive index, [4]	relative permittivity, [5]
x2 = 0	1.4048	14.96
x2 = 0.1	1.4071	15.92
x2 = 0.2	1.4118	17.56
x2 = 0.3	1.4168	19.79
x2 = 0.4	1.4227	22.45
x2 = 0.5	1.4305	25.51
x2 = 0.6	1.4385	28.95
x2 = 0.7	1.4459	32.76
x2 = 0.8	1.4549	37.01
x2 = 0.9	1.4651	41.68

CC(C)=O [acetone]
Conditions	mass density [kg/m3]	refractive index	relative permittivity
[1]	–	1.3564	–
[2]	–	–	20.69
[3]	784.42	–	–

CC(C)=O [acetone] + CC(C)CCO
x1 = 1
Conditions	refractive index	relative permittivity
[4]	1.3564	–
[5]	–	20.69

CC(C)=O [acetone] + CCCCCO
x1 = 1
Conditions	refractive index	relative permittivity
[4]	1.3564	–
[5]	–	20.69

CC(=O)c1ccccc1 [acetophenone]
Conditions	mass density [kg/m3]	refractive index	relative permittivity
[1]	–	1.5318	–
[2]	–	–	17.51
[3]	1022.77	–	–

CC(=O)c1ccccc1 [acetophenone] + CC(C)CCO
Conditions	refractive index, [4]	relative permittivity, [5]
x1 = 0.101	1.418	14.65
x1 = 0.199	1.4303	14.47
x1 = 0.301	1.4451	14.39
x1 = 0.4	1.4573	14.45
x1 = 0.5	1.4709	14.66
x1 = 0.6	1.4817	14.97
x1 = 0.699	1.4935	15.44
x1 = 0.8	1.5063	16.03
x1 = 0.9	1.5187	16.71
x1 = 1	1.5318	17.51
